Structures can show the parent of a compound that is named as a salt.
Molecular target: Full length KDM2B (Homo sapiens (Human), UniProt Q8NHM5)
Assay: KDM2B TR-FRET assay for determining inhibitor IC50
Type: biochemical
Settings: TR-FRET (HTRF), biotin-H3K36me2 peptide substrate, 2-OG 0.3 μM or 6 μM
Source text: KDM2B TR-FRET Assay for Determining Inhibitor IC50
The KDM2B TR-FRET Assay described above represents an additional embodiment of the invention.

Chain of Full length KDM2B (Q8NHM5 whole entry): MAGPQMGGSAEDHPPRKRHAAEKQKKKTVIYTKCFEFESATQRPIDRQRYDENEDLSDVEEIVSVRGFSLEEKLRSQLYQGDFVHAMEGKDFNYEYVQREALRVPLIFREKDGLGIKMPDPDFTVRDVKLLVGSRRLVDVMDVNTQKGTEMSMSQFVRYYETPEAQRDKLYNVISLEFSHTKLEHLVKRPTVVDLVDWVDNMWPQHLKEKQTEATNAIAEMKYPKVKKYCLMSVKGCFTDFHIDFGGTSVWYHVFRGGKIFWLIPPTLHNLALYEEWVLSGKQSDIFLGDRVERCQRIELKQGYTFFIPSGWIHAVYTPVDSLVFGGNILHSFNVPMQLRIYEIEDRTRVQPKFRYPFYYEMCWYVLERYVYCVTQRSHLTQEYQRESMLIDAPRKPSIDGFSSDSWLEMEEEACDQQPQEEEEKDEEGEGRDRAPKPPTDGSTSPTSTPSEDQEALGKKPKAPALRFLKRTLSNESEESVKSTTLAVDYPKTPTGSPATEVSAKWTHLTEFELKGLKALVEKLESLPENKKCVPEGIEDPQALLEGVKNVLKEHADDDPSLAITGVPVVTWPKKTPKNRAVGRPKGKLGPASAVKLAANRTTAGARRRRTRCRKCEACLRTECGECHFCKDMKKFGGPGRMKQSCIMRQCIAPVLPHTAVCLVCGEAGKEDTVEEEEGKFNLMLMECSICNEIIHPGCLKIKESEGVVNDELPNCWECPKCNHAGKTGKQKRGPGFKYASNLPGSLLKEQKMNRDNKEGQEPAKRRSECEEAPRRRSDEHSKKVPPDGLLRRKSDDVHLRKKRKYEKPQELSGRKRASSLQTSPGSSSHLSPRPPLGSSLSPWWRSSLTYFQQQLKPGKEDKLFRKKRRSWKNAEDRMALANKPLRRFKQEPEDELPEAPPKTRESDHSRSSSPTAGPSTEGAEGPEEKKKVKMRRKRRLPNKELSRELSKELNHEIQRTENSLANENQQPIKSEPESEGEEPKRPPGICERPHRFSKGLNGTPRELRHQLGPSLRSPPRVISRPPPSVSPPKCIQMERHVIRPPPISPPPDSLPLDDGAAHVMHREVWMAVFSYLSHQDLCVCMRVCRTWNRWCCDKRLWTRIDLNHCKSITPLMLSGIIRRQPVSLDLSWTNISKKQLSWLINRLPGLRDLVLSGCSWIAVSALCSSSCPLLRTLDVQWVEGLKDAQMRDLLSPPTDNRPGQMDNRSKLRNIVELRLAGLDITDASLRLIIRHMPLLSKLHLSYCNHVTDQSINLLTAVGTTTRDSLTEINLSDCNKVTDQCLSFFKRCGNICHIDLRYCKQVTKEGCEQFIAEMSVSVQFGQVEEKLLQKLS

Molecule | IC50 [µM]
O=C(c1cccc2ccccc12)C1CCCN(CC2CC2)C1 (centres unmarked) [Example 126, (1-(cyclopropylmethyl)piperidin-3-yl)(naphthalen-1-yl)methanone] | 3.8
O=C(c1ccc(F)c2ccccc12)C1CCCN(CC2CC2)C1 (centres unmarked) [Example 127, (1-(cyclopropylmethyl)piperidin-3-yl)(4-fluoronaphthalen-1-yl)methanone hydrochloride] | 1.9
O=C(c1ccc2ccccc2c1F)C1CCCN(CC2CC2)C1 (centres unmarked) [Example 128, (1-(cyclopropylmethyl)piperidin-3-yl)(1-fluoronaphthalen-2-yl)methanone] | 0.133
Cc1noc2cc(C(=O)C3CCCN(CC4CC4)C3)ccc12 (centres unmarked) [Example 129, (1-(cyclopropylmethyl)piperidin-3-yl)(3-methylbenzo[d]isoxazol-6-yl)methanone] | 0.492
Cn1c(=O)n(C)c2cc(C(=O)C3CCCN(CC4CC4)C3)ccc21 (centres unmarked) [Example 130, 5-(1-(cyclopropylmethyl)piperidine-3-carbonyl)-1,3-dimethyl-1H-benzo[d]imidazol-2-one] | 0.442
O=C(c1ccc2c(c1)CCCCC2)C1CCCN(C2CCC2)C1 (centres unmarked) [Example 132, (1-cyclobutylpiperidin-3-yl)(6,7,8,9-tetrahydro-5H-benzo[7]annulen-2-yl)methanoe] | 0.0553
O=C(c1ccc2c(c1)CCCC2)C1CCCN(C2CCC2)C1 (centres unmarked) [Example 133, (1-cyclobutyl-3-piperidyl)-tetralin-6-yl-methanone] | 0.103
O=C(c1ccc2cnccc2c1)C1CCCN(C2CCC2)C1 (centres unmarked) [Example 135] | 0.226
COc1ccc2cc(C(=O)C3CN(CC4CC4)CCC3c3ccccc3)ccc2c1 (centres unmarked) [Example 145, (1-(cyclopropylmethyl)-4-phenylpiperidin-3-yl)(6-methoxynaphthalen-2-yl)methanone] | 0.312
CS(=O)(=O)N1CCc2cc(C(=O)C3CCCN(C4CCC4)C3)ccc2C1 (centres unmarked) [Example 149, (1-cyclobutylpiperidin-3-yl)(2-(methylsulfonyl)-1,2,3,4-tetrahydroisoquinolin-6-yl)methanone] | 0.163
O=C(c1ccc2c(O)cccc2c1)C1CCCN(CC2CC2)C1 (centres unmarked) [Example 150, (1-(cyclopropylmethyl)piperidin-3-yl)(5-hydroxynaphthalen-2-yl)methanone] | 0.133
O=C(c1ccc2cc(CO)ccc2c1)C1CCCN(CC2CC2)C1 (centres unmarked) [Example 152, (1-(cyclopropylmethyl)piperidin-3-yl)(6-(hydroxymethyl)naphthalen-2-yl)methanone] | 0.234
O=C(c1ccc2cc(CO)ccc2c1)C1CCCN(C2CCC2)C1 (centres unmarked) [Example 153, (1-cyclobutylpiperidin-3-yl)(6-(hydroxymethyl)naphthalen-2-yl)methanone] | 0.409
O=C(c1ccc2cc(CO)ccc2c1)C1CCCN(C2CCCC2)C1 (centres unmarked) [Example 154, (1-cyclopentylpiperidin-3-yl)(6-(hydroxymethyl)naphthalen-2-yl)methanone] | 0.183
COc1ccc2cc(C(=O)C3CC(O)CN(CC4CC4)C3)ccc2c1 (centres unmarked) [Example 155, (1-(cyclopropylmethyl)-5-hydroxypiperidin-3-yl)(6-methoxynaphthalen-2-yl)methanone] | 0.779
N#Cc1ccc2cc(C(=O)C3CCCN(CC4CC4)C3)ccc2c1 (centres unmarked) [Example 159, 6-(1-(cyclopropylmethyl)piperidine-3-carbonyl)-2-naphthonitrile] | 0.0688
CC1CCN(C2CCCC2)CC1C(=O)c1ccc2cc(C#N)ccc2c1 (centres unmarked) [Example 162a, 6-(1-cyclopentyl-4-methylpiperidine-3-carbonyl)-2-naphthonitrile] | 0.814
CC1CC1CN1CCCC(C(=O)c2ccc3cc(C#N)ccc3c2)C1 (centres unmarked) [Example 164, 6-(1-((2-methylcyclopropyl)methyl)piperidine-3-carbonyl)-2-naphthonitrile] | 0.436
Cc1ccc2cc(C(=O)C3CCCN(C4CCC4)C3)ccc2c1 (centres unmarked) [Example 165, (1-cyclobutylpiperidin-3-yl)(6-methylnaphthalen-2-yl)methanone hydrochloride] | 0.163
Cc1ccc2cc(C(=O)C3CCCN(C4CCCC4)C3)ccc2c1 (centres unmarked) [Example 166, (1-cyclopentylpiperidin-3-yl)(6-methylnaphthalen-2-yl)methanone] | 0.24
CS(=O)(=O)c1ccc2cc(C(=O)C3CCCN(CC4CC4)C3)ccc2c1 (centres unmarked) [Example 169, (1-(cyclopropylmethyl)piperidin-3-yl)(6-(methylsulfonyl)naphthalen-2-yl)methanone] | 0.112

Molecule | IC50 [µM]
CS(=O)(=O)c1ccc2cc(C(=O)C3CCCN(C4CCC4)C3)ccc2c1 (centres unmarked) [Example 170, (1-cyclobutylpiperidin-3-yl)(6-(methylsulfonyl)naphthalen-2-yl)methanone] | 0.0426
CS(=O)(=O)c1ccc2cc(C(=O)C3CCCN(C4CCCC4)C3)ccc2c1 (centres unmarked) [Example 171, (1-cyclopentylpiperidin-3-yl)(6-(methylsulfonyl)naphthalen-2-yl)methanone] | 0.102
Cc1ccc2cc(C(=O)C3CCCN(CC4CC4)C3)ccc2n1 (centres unmarked) [Example 173] | 0.255
O=C(Nc1ccc2cc(C(=O)C3CCCN(CC4CC4)C3)ccc2c1)C1CC1 (centres unmarked) [Example 175] | 0.355
CN(C)C(=O)c1ccc2cc(C(=O)C3CCCN(CC4CC4)C3)ccc2c1 (centres unmarked) [Example 176, 6-(1-(cyclopropylmethyl)piperidine-3-carbonyl)-N,N-dimethyl-2-naphthamide] | 0.214
CN(C)C(=O)c1ccc2cc(C(=O)C3CCCN(C4CCC4)C3)ccc2c1 (centres unmarked) [Example 177, 6-(1-cyclobutylpiperidine-3-carbonyl)-N,N-dimethyl-2-naphthamide] | 0.113
CN(C)C(=O)c1ccc2cc(C(=O)C3CCCN(C4CCCC4)C3)ccc2c1 (centres unmarked) [Example 178] | 0.188
COc1ccc2cc(C(=O)C3CCCN(CC4CC4)C3)ccc2c1CO (centres unmarked) [Example 188, (1-(cyclopropylmethyl)piperidin-3-yl)(5-(hydroxymethyl)-6-methoxynaphthalen-2-yl)methanone hydrochloride] | 0.133
COc1ccc2cc(C(=O)C3CCCN(C4CCC4)C3)ccc2c1CO (centres unmarked) [Example 189, (1-cyclobutylpiperidin-3-yl)(5-(hydroxymethyl)-6-methoxynaphthalen-2-yl)methanone hydrochloride] | 0.0553
CCN1CCN(C2CCC2)CC1C(=O)c1ccc2cc(OC)ccc2c1 (centres unmarked) [Example 190] | 0.979
COc1ccc2cc(C(=O)C3CN(C4CCC4)CCN3Cc3ccccc3)ccc2c1 (centres unmarked) [Example 191, (1-benzyl-4-cyclobutyl-piperazin-2-yl)-(6-methoxy-2-naphthyl)methanone] | 0.102
COc1ccc2cc(C(=O)C3CN(C4CCC4)CCN3CC3CC3)ccc2c1 (centres unmarked) [Example 192, [4-cyclobutyl-1-(cyclopropylmethyl)piperazin-2-yl]-(6-methoxy-2-naphthyl)methanone] | 0.385
COc1ccc2cc(C(=O)C3CN(C4CCC4)CCN3Cc3cccc(C#N)c3)ccc2c1 (centres unmarked) [Example 193, 3-[[4-cyclobutyl-2-(6-methoxynaphthalene-2-carbonyl)piperazin-1-yl]methyl]benzonitrile] | 0.0223
COc1ccc2cc(C(=O)C3CN(C4CCC4)CCN3C)ccc2c1 (centres unmarked) [Example 194, (4-cyclobutyl-1-methyl-piperazin-2-yl)-(6-methoxy-2-naphthyl)methanone] | 1.7
COc1ccc2cc(C(=O)C3CN(C4CCC4)CCN3Cc3ccccc3C#N)ccc2c1 (centres unmarked) [Example 195, 2-[[4-cyclobutyl-2-(6-methoxynaphthalene-2-carbonyl)piperazin-1-yl]methyl]benzonitrile] | 0.176
COc1ccc2cc(C(=O)C3CN(C4CCC4)CCN3Cc3ccc(C)cc3)ccc2c1 (centres unmarked) [Example 196, [4-cyclobutyl-1-(p-tolylmethyl)piperazin-2-yl]-(6-methoxy-2-naphthyl)methanone] | 0.138
COc1ccc2cc(C(=O)C3CN(C4CCC4)CCN3Cc3ccc4ccccc4c3)ccc2c1 (centres unmarked) [Example 197, [4-cyclobutyl-1-(2-naphthylmethyl)piperazin-2-yl]-(6-methoxy-2-naphthyl)methanone] | 0.165
COc1ccc2cc(C(=O)C3CN(C4CCC4)CCN3Cc3cccc(C(F)(F)F)c3)ccc2c1 (centres unmarked) [Example 198, [4-cyclobutyl-1-[[3-(trifluoromethyl)phenyl]methyl]piperazin-2-yl]-(6-methoxy-2-naphthyl)methanone] | 0.302
COc1ccc2cc(C(=O)C3CN(C4CCC4)CCN3Cc3ccc(C#N)cc3)ccc2c1 (centres unmarked) [Example 199, 4-[[4-cyclobutyl-2-(6-methoxynaphthalene-2-carbonyl)piperazin-1-yl]methyl]benzonitrile] | 0.0309
(1-(cyclopropylmethyl)-4-methylpiperidin-3-yl)(6-methoxynaphthalen-2-yl)methanone [Example 137a] | 0.0706

Reference: US10280149B2, “Therapeutic compounds and uses thereof” (GENENTECH, INC., priority 2015, dated 2019)
